Measurements published in patent US20070049593A1 (priority 2004, published 2007).
Counter-ions that a name gives are not always drawn. Like-named read-outs stand apart in the source and are kept apart here.

Target: T1, HCV polymerase (Hepatitis C virus genotype 1b, UniProt P26663)
T1 construct: a region encoding NS5B (J Virol 1991 March, 65(3), 1105-13, 544 amino acids after deletion of 47 amino acids on the C-terminal); 6xHis (C); made in house; host or cells: Escherichia coli
Assay: biochemical
Parameters: species or system HCV BK strain
Excerpt: The evaluation of the HCV polymerase inhibitory activity of the compound of the present invention is explained in the following. This polymerase is an enzyme coded for by the non-structural protein region called NS5B on the genome RNA of HCV (EMBO J., 15:12-22, 1996).
Using, as a template, a cDNA clone corresponding to the full length genome RNA of HCV BK strain obtained from the blood of a patient with hepatitis C, a region encoding NS5B (J Virol 1991 March, 65(3), 1105-13, 544 amino acids after deletion of 47 amino acids on the C-terminal) was amplified by PCR. The objective gene was prepared by adding a 6 His tag {base pair encoding 6 continuous histidine (His)}to the 3′ end thereof and transformed to Escherichia coli. The Escherichia coli capable of producing the objective protein was cultured. The obtained cells were suspended in a buffer solution and crushed in a microfluidizer.
Using a synthetic primer designed based on the sequence of HCV genomic 3′ untranslated region, a DNA fragment (148 bp) containing polyU and 3′X sequence was entirely synthesized and cloned into plasmid pBluescript SK II(+) (Stratagene). The cDNA encoding full length NS5B, which was prepared in i) above, was digested with restriction enzyme KpnI to give a cDNA fragment containing the nucleotide sequence of from the restriction enzyme cleavage site to the termination codon. This cDNA fragment was inserted into the upstream of 3′ untranslated region of the DNA in pBluescript SK II(+) and ligated. The about 450 bp inserted DNA sequence was used as a template in the preparation of substrate RNA.
RNA was synthesized (37° C., 3 hr) by run-off method using this purified DNA as a template, a promoter of pBluescript SK II(+), MEGAscript RNA synthesis kit (Ambion) and T7 RNA polymerase. DNase I was added and the mixture was incubated for 1 hr. The template DNA was removed by decomposition to give a crude RNA product.
A test substance (compound of the present invention) and a reaction mixture (30 μl) having the following composition were reacted at 25° C. for 90 min.
10% Trichloroacetic acid at 4° C. and 1% sodium pyrophosphate solution (150 μl) were added to this reaction mixture to stop the reaction. The reaction mixture was left standing in ice for 15 min to insolubilize RNA. This RNA was trapped on a glass filter (Whatman GF/C and the like) upon filtration by suction. This filter was washed with a solution containing 1% trichloroacetic acid and 0.1% sodium pyrophosphate, washed with 90% ethanol and dried. A liquid scintillation cocktail (Packard) was added and the radioactivity of RNA synthesized by the enzyme reaction was measured on a liquid scintillation counter.
The HCV polymerase inhibitory activity (IC50) of the compound of the present invention was calculated from the values of radioactivity of the enzyme reaction with and without the test substance.
Reaction mixture: HCV polymerase (0.5 μg/ml) obtained in i), substrate RNA (5 μg/ml) obtained in ii), ATP (50 μM), GTP (50 μM), CTP ([…]), UTP (2 μM), [5,6-^3H]UTP (46 Ci/mmol (Amersham), 1 μCi) 20 mM Tris-HCl (pH 7.5), EDTA (1 mM), MgCl2 (5 mM), NaCl (50 mM), DTT (1 mM), BSA (0.01%)

T1 sequence (P26663 2420-2963): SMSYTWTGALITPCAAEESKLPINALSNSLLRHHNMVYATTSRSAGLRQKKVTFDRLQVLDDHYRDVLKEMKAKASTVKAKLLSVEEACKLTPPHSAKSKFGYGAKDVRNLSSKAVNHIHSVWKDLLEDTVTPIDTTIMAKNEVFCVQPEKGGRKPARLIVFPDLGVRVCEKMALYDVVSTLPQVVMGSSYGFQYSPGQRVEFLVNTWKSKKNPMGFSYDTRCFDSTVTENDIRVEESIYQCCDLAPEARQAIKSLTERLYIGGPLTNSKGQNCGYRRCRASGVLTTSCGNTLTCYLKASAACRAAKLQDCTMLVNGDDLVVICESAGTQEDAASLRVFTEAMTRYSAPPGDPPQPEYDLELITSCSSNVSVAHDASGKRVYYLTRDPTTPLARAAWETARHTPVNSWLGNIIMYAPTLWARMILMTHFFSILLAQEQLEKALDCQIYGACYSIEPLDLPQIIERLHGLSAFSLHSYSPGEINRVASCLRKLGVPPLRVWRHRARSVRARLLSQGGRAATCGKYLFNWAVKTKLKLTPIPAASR

CCN1CCN(C(=O)CCCN2CCn3c(c(C4CCCCC4)c4ccc(C(=O)O)cc43)-c3ccccc32)CC1 [Example 1-62, 13-cyclohexyl-5-[4-(4-ethylpiperazin-1-yl)-4-oxobutyl]-6,7-dihydro-5H-benzo[5,6][1,4]diazepino[7,1-a]indole-10-carboxylic acid dihydrochloride]
IC50: < 100 nM

Cc1ccc2c(c1)N(CC(=O)N1CCOCC1)CCn1c-2c(C2CCCCC2)c2ccc(C(=O)O)cc21 [Example 1-63, 13-cyclohexyl-3-methyl-5-[2-(morpholin-4-yl)-2-oxoethyl]-6,7-dihydro-5H-benzo[5,6][1,4]diazepino[7,1-a]indole-10-carboxylic acid monohydrochloride]
IC50: < 100 nM

COc1ccc2c(c1)N(CC(=O)N1CCOCC1)CCn1c-2c(C2CCCCC2)c2ccc(C(=O)O)cc21 [Example 1-64, 13-cyclohexyl-3-methoxy-5-[2-(morpholin-4-yl)-2-oxoethyl]-6,7-dihydro-5H-benzo[5,6][1,4]diazepino[7,1-a]indole-10-carboxylic acid monohydrochloride]
IC50: < 100 nM

COc1ccc2c(c1)N(CC(=O)N1CCCCC1)CCn1c-2c(C2CCCCC2)c2ccc(C(=O)O)cc21 [Example 1-65, 13-cyclohexyl-3-methoxy-5-[2-oxo-2-(piperidin-1-yl)ethyl]-6,7-dihydro-5H-benzo[5,6][1,4]diazepino[7,1-a]indole-10-carboxylic acid monohydrochloride]
IC50: < 100 nM

CCN1CCN(C(=O)CN2CCn3c(c(C4CCCCC4)c4ccc(C(=O)O)cc43)-c3ccc(OC)cc32)CC1 [Example 1-66, 13-cyclohexyl-5-[2-(4-ethylpiperazin-1-yl)-2-oxoethyl]-3-methoxy-6,7-dihydro-5H-benzo[5,6][1,4]diazepino[7,1-a]indole-10-carboxylic acid dihydrochloride]
IC50: < 100 nM

COc1ccc2c(c1)N(CCN1CCOCC1)CCn1c-2c(C2CCCCC2)c2ccc(C(=O)O)cc21 [Example 1-67, 13-cyclohexyl-3-methoxy-5-[2-(morpholin-4-yl)ethyl]-6,7-dihydro-5H-benzo[5,6][1,4]diazepino[7,1-a]indole-10-carboxylic acid dihydrochloride]
IC50: < 100 nM

Cc1ccc2c(c1)N(CCN1CCOCC1)CCn1c-2c(C2CCCCC2)c2ccc(C(=O)O)cc21 [Example 1-68, 13-cyclohexyl-3-methyl-5-[2-(morpholin-4-yl)ethyl]-6,7-dihydro-5H-benzo[5,6][1,4]diazepino[7,1-a]indole-10-carboxylic acid dihydrochloride]
IC50: < 100 nM

O=C(O)c1ccc2c(C3CCCCC3)c3n(c2c1)CCN(CCN1CCCOCC1)c1ccccc1-3 [Example 1-69, 13-cyclohexyl-5-[2-(1,4-oxazepan-4-yl)ethyl]-6,7-dihydro-5H-benzo[5,6][1,4]diazepino[7,1-a]indole-10-carboxylic acid dihydrochloride]
IC50: < 100 nM

CS(=O)(=O)N1CCN(C(=O)CN2CCn3c(c(C4CCCCC4)c4ccc(C(=O)O)cc43)-c3ccccc32)CC1 [Example 1-70, 13-cyclohexyl-5-[2-(4-methanesulfonylpiperazin-1-yl)-2-oxoethyl]-6,7-dihydro-5H-benzo[5,6][1,4]diazepino[7,1-a]indole-10-carboxylic acid monohydrochloride]
IC50: < 100 nM

CCC1CCN(C(=O)CN2CCn3c(c(C4CCCCC4)c4ccc(C(=O)O)cc43)-c3ccccc32)CC1 [Example 1-71, 13-cyclohexyl-5-[2-(4-ethylpiperidin-1-yl)-2-oxoethyl]-6,7-dihydro-5H-benzo[5,6][1,4]diazepino[7,1-a]indole-10-carboxylic acid monohydrochloride]
IC50: < 100 nM

CC1CCN(C(=O)CN2CCn3c(c(C4CCCCC4)c4ccc(C(=O)O)cc43)-c3ccccc32)CC1 [Example 1-72, 13-cyclohexyl-5-[2-(4-methylpiperidin-1-yl)-2-oxoethyl]-6,7-dihydro-5H-benzo[5,6][1,4]diazepino[7,1-a]indole-10-carboxylic acid monohydrochloride]
IC50: < 100 nM

CCC1CCN(CCN2CCn3c(c(C4CCCCC4)c4ccc(C(=O)O)cc43)-c3ccccc32)CC1 [Example 1-73, 13-cyclohexyl-5-[2-(4-ethylpiperidin-1-yl)ethyl]-6,7-dihydro-5H-benzo[5,6][1,4]diazepino[7,1-a]indole-10-carboxylic acid dihydrochloride]
IC50: < 100 nM

COc1ccc2c(c1)N(CCN1CCCCC1)CCn1c-2c(C2CCCCC2)c2ccc(C(=O)O)cc21 [Example 1-74, 13-cyclohexyl-3-methoxy-5-[2-(piperidin-1-yl)ethyl]-6,7-dihydro-5H-benzo[5,6][1,4]diazepino[7,1-a]indole-10-carboxylic acid dihydrochloride]
IC50: < 100 nM

CC1CCN(CCN2CCn3c(c(C4CCCCC4)c4ccc(C(=O)O)cc43)-c3ccccc32)CC1 [Example 1-75, 13-cyclohexyl-5-[2-(4-methylpiperidin-1-yl)ethyl]-6,7-dihydro-5H-benzo[5,6][1,4]diazepino[7,1-a]indole-10-carboxylic acid dihydrochloride]
IC50: < 100 nM

CCN1CCN(C(=O)CN2CCn3c(c(C4CCCCC4)c4ccc(C(=O)O)cc43)-c3ccc(Cl)cc32)CC1 [Example 1-76, 3-chloro-13-cyclohexyl-5-[2-(4-ethylpiperazin-1-yl)-2-oxoethyl]-6,7-dihydro-5H-benzo[5,6][1,4]diazepino[7,1-a]indole-10-carboxylic acid dihydrochloride]
IC50: < 100 nM

O=C(O)c1ccc2c(C3CCCCC3)c3n(c2c1)CCN(CC(=O)N1CCCCC1)c1cc(Cl)ccc1-3 [Example 1-77, 3-chloro-13-cyclohexyl-5-[2-oxo-2-(piperidin-1-yl)ethyl]-6,7-dihydro-5H-benzo[5,6][1,4]diazepino[7,1-a]indole-10-carboxylic acid monohydrochloride]
IC50: < 100 nM

O=C(O)c1ccc2c(C3CCCCC3)c3n(c2c1)CCN(CC(=O)N1CCCCCC1)c1ccccc1-3 [Example 1-78, 5-[2-(azepan-1-yl)-2-oxoethyl]-13-cyclohexyl-6,7-dihydro-5H-benzo[5,6][1,4]diazepino[7,1-a]indole-10-carboxylic acid monohydrochloride]
IC50: < 100 nM

O=C(O)c1ccc2c(C3CCCCC3)c3n(c2c1)CCN(CCN1CCOCC1)c1cc(Cl)ccc1-3 [Example 1-79, 3-chloro-13-cyclohexyl-5-[2-(morpholin-4-yl)ethyl]-6,7-dihydro-5H-benzo[5,6][1,4]diazepino[7,1-a]indole-10-carboxylic acid dihydrochloride]
IC50 (25° C., 90 min, [5,6-3H]UTP incorporation into RNA, read-out: HCV polymerase inhibitory activity IC50): < 100 nM

O=C(O)c1ccc2c(C3CCCCC3)c3n(c2c1)CCN(CCCCN1CCOCC1)c1ccccc1-3 [Example 1-80, 13-cyclohexyl-5-[4-(morpholin-4-yl)butyl]-6,7-dihydro-5H-benzo[5,6][1,4]diazepino[7,1-a]indole-10-carboxylic acid dihydrochloride]
IC50: < 100 nM

O=C(O)c1ccc2c(C3CCCCC3)c3n(c2c1)CCN(CC(=O)N1CCN(c2ccccc2)CC1)c1ccccc1-3 [Example 1-81, 13-cyclohexyl-5-[2-oxo-2-(4-phenylpiperazin-1-yl)ethyl]-6,7-dihydro-5H-benzo[5,6][1,4]diazepino[7,1-a]indole-10-carboxylic acid dihydrochloride]
IC50: < 100 nM

O=C(O)c1ccc2c(C3CCCCC3)c3n(c2c1)CCN(CCN1CCN(c2ccccc2)CC1)c1ccccc1-3 [Example 1-82, 13-cyclohexyl-5-[2-(4-phenylpiperazin-1-yl)ethyl]-6,7-dihydro-5H-benzo[5,6][1,4]diazepino[7,1-a]indole-10-carboxylic acid trihydrochloride]
IC50: < 100 nM
